Among the test systems are SF-268 CNS; NCI-H522 lung; SW-620 colon; HCC-2998 colon; HL-60(TB) leukemia; OVCAR-8 ovarian; MCF7 breast; U251 CNS; PC-3 prostate; NCI-H460 lung.
Holding throughout (assay): DTP human tumour cell line panel, 48 h

A word on the GI50: it is the concentration giving 50% growth inhibition. In general, TGI refers to the concentration giving total growth inhibition.

Several values for one entry are separate records, joined by “and”; a condition that tells them apart may be missing. Equal values may be shown once.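 Five compound concentrations were applied to cells in 96-well plates for 48 hours; endpoints were derived by simple linear interpolation of the resulting dose-response curve. GI50: concentration for 50% inhibition of growth. TGI is the concentration that stops growth completely.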

Regarding `O=C(Nc1ccc(Nc2ccncc2)cc1)c1ccc([N+](=O)[O-])cc1`, the GI50 in the test on SF-268 CNS is 6.79 µM; in the test on NCI-H522 lung it was 12.5 µM; in the test with SW-620 colon it was 2.22 µM; in the test on HCC-2998 colon it was 2.77 µM; in the test with HL-60(TB) leukemia it was 4.43 µM; with OVCAR-8 ovarian, 8.44 µM. The GI50 with MCF7 breast is 3.5 µM; in the test with U251 CNS, 2.49 µM; with PC-3 prostate it was 13.7 µM; in the test on NCI-H460 lung, 4.24 µM. The TGI is 27.5 µM in the test with SF-268 CNS; 34.6 µM in the test on NCI-H522 lung; 5.08 µM with SW-620 colon; 12.3 µM in the test with HCC-2998 colon; above 24.6 µM with HL-60(TB) leukemia; 32.6 µM in the test with OVCAR-8 ovarian. The TGI was 20.5 µM in the test with MCF7 breast, 7.12 µM in the test on U251 CNS, above 56.6 µM in the test on PC-3 prostate and 16.5 µM with NCI-H460 lung.

`O=C(/C=C/c1ccccc1)CCC1C(=O)c2ccccc2C1=O`: the TGI in the test on SF-268 CNS, in the test on NCI-H522 lung, in the test with SW-620 colon, in the test on HCC-2998 colon, with HL-60(TB) leukemia and in the test on OVCAR-8 ovarian was above 100 µM in each case. The TGI with MCF7 breast, in the test on U251 CNS, in the test on PC-3 prostate and in the test with NCI-H460 lung was above 100 µM in each case.

Regarding `COc1cccc2c1C(=O)c1c(O)c3c(c(O)c1C2=O)C[C@@](O)(C(=O)CO)C[C@@H]3OC1CC(N)CC(C)O1` (stereo partly drawn), the GI50 with SF-268 CNS is 0.0515 µM; in the test on NCI-H522 lung, 0.0339 µM; in the test on SW-620 colon, 0.0117 µM and 0.0389 µM; in the test with HCC-2998 colon it was 0.117 µM; in the test on HL-60(TB) leukemia, 0.0091 µM and 0.00929 µM and 0.0412 µM; in the test on OVCAR-8 ovarian, 0.0359 µM and 0.052 µM. The 50% growth inhibitory concentration (GI50) in the test with MCF7 breast is 0.00536 µM; in the test with U251 CNS it was 0.0224 µM and 0.0311 µM; in the test with PC-3 prostate it was 0.0558 µM. Moreover, the TGI was 0.461 µM and 0.937 µM in the test on SF-268 CNS; 0.179 µM and 0.303 µM in the test on NCI-H522 lung; 0.434 µM and 1.36 µM in the test with SW-620 colon; 0.429 µM and 0.619 µM in the test on HCC-2998 colon; 0.122 µM and 0.939 µM in the test with HL-60(TB) leukemia; 1.13 µM and 0.546 µM with OVCAR-8 ovarian. For the same molecule, the TGI in the test on MCF7 breast was 3.71 µM and 1.93 µM; in the test with U251 CNS, 2.2 µM and 0.873 µM; with PC-3 prostate, 0.33 µM and 0.246 µM; in the test with NCI-H460 lung it was 0.421 µM and 0.192 µM.

`CCOC(=O)C(C#N)C1=CC(=O)C(=O)c2ccc(OC)cc21` (stereo not drawn): the TGI in the test on SF-268 CNS was above 100 µM; in the test with NCI-H522 lung, 18.7 µM; in the test with SW-620 colon, 33.3 µM; in the test on HCC-2998 colon, 29.8 µM; in the test on HL-60(TB) leukemia, above 100 µM; in the test on OVCAR-8 ovarian, 54.4 µM. The TGI in the test with MCF7 breast came to 31.4 µM; in the test with U251 CNS, 72.5 µM; with PC-3 prostate, 77 µM; in the test on NCI-H460 lung it was 58.6 µM.

On to `CN1CCN(C2CCN(C(=O)Nc3cc(Oc4ccc(NC(=O)C5(C(=O)Nc6ccc(F)cc6)CC5)c(F)c4)ccn3)CC2)CC1`, for which the TGI was above 2.96 µM in the test on SF-268 CNS; above 2.66 µM with NCI-H522 lung; above 10 µM with SW-620 colon; above 10 µM in the test with HCC-2998 colon; above 3.33 µM with HL-60(TB) leukemia; above 10 µM in the test with OVCAR-8 ovarian. Also, the concentration for total growth inhibition (TGI) in the test with MCF7 breast is above 10 µM; with U251 CNS, above 10 µM; with PC-3 prostate, above 3.84 µM; with NCI-H460 lung it was above 10 µM. Moreover, the GI50 with SW-620 colon was 1.43 µM; with HCC-2998 colon it was above 2.04 µM; in the test on HL-60(TB) leukemia, 1.39 µM; in the test with MCF7 breast it was 1.09 µM; with PC-3 prostate, 1.01 µM; with NCI-H460 lung, 1.44 µM.

Regarding `COC(=O)C[C@](O)(CCCC(C)(C)O)C(=O)O[C@@H]1C(OC)=C[C@]23CCCN2CCc2cc4c(cc2[C@H]13)OCO4`, the GI50 is 0.046 µM in the test with SF-268 CNS; 0.0482 µM and < 0.01 µM with NCI-H522 lung; 0.0293 µM in the test on SW-620 colon; 0.0137 µM with HCC-2998 colon; 0.0249 µM in the test with HL-60(TB) leukemia; 0.0287 µM with OVCAR-8 ovarian. For the same molecule, the concentration for 50% growth inhibition (GI50) is below 0.01 µM in the test with MCF7 breast; 0.0223 µM with U251 CNS; 0.0288 µM in the test on PC-3 prostate; 0.016 µM and < 0.01 µM with NCI-H460 lung. The TGI is 0.99 µM and 0.446 µM in the test with SF-268 CNS; 0.186 µM and 0.0288 µM in the test with NCI-H522 lung; 2.59 µM and 5.05 µM in the test on SW-620 colon; 0.246 µM and 0.0428 µM in the test on HCC-2998 colon; 0.237 µM and 0.0758 µM with HL-60(TB) leukemia; 0.377 µM and 0.0666 µM in the test with MCF7 breast. Moreover, the total growth inhibition concentration (TGI) with U251 CNS was 0.564 µM and 0.0728 µM; with NCI-H460 lung it was 0.27 µM and 0.088 µM.

For `CCOC(=O)C1=CN(C)C=C(C(=O)OCC)C1c1cc(Br)c(OCC)c(OC)c1`, the GI50 is above 100 µM with SF-268 CNS; above 100 µM in the test on NCI-H522 lung; 67.2 µM in the test on SW-620 colon; above 100 µM with HCC-2998 colon; above 100 µM in the test on HL-60(TB) leukemia; above 100 µM in the test on OVCAR-8 ovarian. The GI50 in the test with MCF7 breast is 32 µM; in the test with U251 CNS, above 100 µM; in the test on PC-3 prostate, 8.29 µM; in the test with NCI-H460 lung it was 43.5 µM. Also, the total growth inhibition concentration (TGI) with SF-268 CNS, in the test with NCI-H522 lung, in the test on SW-620 colon, with HCC-2998 colon, in the test on HL-60(TB) leukemia and with OVCAR-8 ovarian was above 100 µM in each case. Besides, the concentration for total growth inhibition (TGI) with MCF7 breast, with U251 CNS, in the test with PC-3 prostate and with NCI-H460 lung was above 100 µM throughout.

The values are drawn from PubChem BioAssay (NCI).
